Results as given in US8962641B2, “Pyrimidine-substituted pyrrolidine derivatives, pharmaceutical compositions and uses thereof” (Boehringer Ingelheim International GmbH, priority 2013, dated 2015).

Target: human ACC2 (Homo sapiens (Human), UniProt O00763)
Assay: ACC2 assay (spectrophotometric 384 well assay, NADH-linked kinetic method)
Assay type: biochemical
Details: hACC2 construct lacking 128 N-terminal amino acids; coupled lactate dehydrogenase/pyruvate kinase reaction, 340 nm, 25° C.
How it was run: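 Baculovirus/insect-cell human ACC2, anion-exchange purified; ADP formation coupled to pyruvate kinase/lactate dehydrogenase, NADH loss followed at 340 nm, 25° C, 15 min. Final 200 μM NADH and acetyl-CoA, 500 uM ATP; vehicle and no-acetyl-CoA wells set 100% and 0%.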

human ACC2, sequence (O00763 129-2458): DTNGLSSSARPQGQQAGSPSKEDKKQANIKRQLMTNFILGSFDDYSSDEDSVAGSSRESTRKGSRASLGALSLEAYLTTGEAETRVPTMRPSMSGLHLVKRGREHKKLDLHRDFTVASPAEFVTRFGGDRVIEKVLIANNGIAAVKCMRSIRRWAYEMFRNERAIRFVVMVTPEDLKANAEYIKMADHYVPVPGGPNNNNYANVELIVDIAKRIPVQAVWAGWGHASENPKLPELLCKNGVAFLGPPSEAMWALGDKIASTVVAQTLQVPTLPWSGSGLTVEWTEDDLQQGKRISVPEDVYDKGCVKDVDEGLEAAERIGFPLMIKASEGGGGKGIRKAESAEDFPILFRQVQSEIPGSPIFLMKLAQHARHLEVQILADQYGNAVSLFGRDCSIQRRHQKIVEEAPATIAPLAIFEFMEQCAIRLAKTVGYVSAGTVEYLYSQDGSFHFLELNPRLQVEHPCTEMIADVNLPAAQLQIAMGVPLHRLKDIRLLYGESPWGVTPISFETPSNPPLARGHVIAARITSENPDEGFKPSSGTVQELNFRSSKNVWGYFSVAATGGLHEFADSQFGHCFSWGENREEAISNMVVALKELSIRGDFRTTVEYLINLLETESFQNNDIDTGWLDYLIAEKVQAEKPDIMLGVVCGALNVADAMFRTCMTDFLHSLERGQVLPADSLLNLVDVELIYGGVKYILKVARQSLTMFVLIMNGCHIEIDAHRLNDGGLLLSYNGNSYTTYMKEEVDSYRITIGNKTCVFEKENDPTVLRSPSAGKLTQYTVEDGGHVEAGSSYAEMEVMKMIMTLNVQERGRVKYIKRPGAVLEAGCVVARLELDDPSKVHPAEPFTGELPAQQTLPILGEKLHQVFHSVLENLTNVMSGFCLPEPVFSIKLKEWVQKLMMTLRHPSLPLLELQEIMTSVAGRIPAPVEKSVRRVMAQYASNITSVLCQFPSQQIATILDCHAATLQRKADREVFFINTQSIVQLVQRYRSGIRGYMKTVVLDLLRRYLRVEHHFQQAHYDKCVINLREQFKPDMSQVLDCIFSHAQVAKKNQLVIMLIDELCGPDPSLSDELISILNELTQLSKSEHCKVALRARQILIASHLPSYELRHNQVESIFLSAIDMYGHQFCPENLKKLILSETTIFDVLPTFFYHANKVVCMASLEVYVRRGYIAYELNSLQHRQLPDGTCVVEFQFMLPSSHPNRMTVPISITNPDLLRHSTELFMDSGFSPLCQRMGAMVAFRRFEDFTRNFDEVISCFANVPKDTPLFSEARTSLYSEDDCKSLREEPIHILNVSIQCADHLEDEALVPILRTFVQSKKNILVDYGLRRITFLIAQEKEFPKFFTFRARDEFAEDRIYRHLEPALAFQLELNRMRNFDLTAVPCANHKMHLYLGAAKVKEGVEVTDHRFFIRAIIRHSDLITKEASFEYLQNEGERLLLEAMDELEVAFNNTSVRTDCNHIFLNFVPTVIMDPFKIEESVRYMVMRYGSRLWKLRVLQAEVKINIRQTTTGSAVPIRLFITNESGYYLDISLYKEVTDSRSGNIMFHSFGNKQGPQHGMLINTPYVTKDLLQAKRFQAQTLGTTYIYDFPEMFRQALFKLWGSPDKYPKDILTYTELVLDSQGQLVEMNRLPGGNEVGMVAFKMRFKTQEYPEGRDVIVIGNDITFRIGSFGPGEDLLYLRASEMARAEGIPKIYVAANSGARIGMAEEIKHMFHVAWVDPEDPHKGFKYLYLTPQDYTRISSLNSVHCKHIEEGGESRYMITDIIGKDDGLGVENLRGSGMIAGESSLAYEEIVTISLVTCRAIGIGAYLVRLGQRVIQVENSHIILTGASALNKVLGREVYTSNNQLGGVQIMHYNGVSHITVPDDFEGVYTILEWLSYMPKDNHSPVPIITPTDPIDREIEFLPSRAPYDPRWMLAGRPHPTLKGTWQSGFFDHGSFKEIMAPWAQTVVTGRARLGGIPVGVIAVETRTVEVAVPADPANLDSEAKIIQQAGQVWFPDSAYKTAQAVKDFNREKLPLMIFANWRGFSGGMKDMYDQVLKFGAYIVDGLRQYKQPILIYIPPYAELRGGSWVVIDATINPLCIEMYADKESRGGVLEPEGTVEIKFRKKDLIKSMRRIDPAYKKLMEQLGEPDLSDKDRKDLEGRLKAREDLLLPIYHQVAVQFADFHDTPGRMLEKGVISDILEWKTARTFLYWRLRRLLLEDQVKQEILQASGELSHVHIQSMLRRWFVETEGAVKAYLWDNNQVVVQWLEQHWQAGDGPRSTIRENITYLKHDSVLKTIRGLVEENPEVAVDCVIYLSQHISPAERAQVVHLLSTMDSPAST

| IC50 [nM] | Structure (SMILES) |
| --- | --- |
| 303 | CC(=O)N[C@@H](C)c1ccc(O[C@@H]2CCN(c3nc(N(C)C4CCCOC4)ncc3Cl)C2)cc1 (some centres unmarked) [Example 8.255] |
| 303 | CC(=O)N[C@@H](C)c1ccc(O[C@@H]2CCN(c3nc(N4CCC(C)(O)C4)ncc3Cl)C2)cc1 (some centres unmarked) [Example 8.256] |
| 121 | CC(=O)N[C@@H](C)c1ccc(O[C@@H]2CCN(c3nc(N4CCOC(C(F)(F)F)C4)ncc3F)C2)cc1 (some centres unmarked) [Example 8.257] |
| 105 | CC(=O)N[C@@H](C)c1ccc(O[C@@H]2CCN(c3nc(N(C)C[C@@H]4CCCO4)ncc3Cl)C2)cc1 [Example 8.258] |
| 173 | CO[C@H]1CCN(c2ncc(F)c(N3CC[C@@H](Oc4ccc([C@H](C)NC(C)=O)cc4)C3)n2)C1 [Example 8.259] |
| 180 | CCN(c1nccc(N2CC[C@@H](Oc3ccc([C@H](C)NC(C)=O)cc3)C2)n1)C(C)C [Example 8.260] |
| 96 | CC(=O)N[C@@H](C)c1ccc(O[C@@H]2CCN(c3nc(N4CCC(F)(F)CC4)ncc3F)C2)cc1 [Example 8.261] |
| 129 | COC[C@@H]1CCCN1c1ncc(F)c(N2CC[C@@H](Oc3ccc([C@H](C)NC(C)=O)cc3)C2)n1 [Example 8.262] |
| 698 | CCN(CCO)c1nccc(N2CC[C@@H](Oc3ccc([C@H](C)NC(C)=O)cc3)C2)n1 [Example 8.263] |
| 282 | CC(=O)N[C@@H](C)c1ccc(O[C@@H]2CCN(c3ccnc(N4CCCOCC4)n3)C2)cc1 [Example 8.264] |
| 379 | CC(=O)N[C@@H](C)c1ccc(O[C@@H]2CCN(c3ccnc(N4CC[C@H](F)C4)n3)C2)cc1 [Example 8.265] |
| 995 | CC(=O)N[C@@H](C)c1ccc(O[C@@H]2CCN(c3nc(N(C)CC(C)(C)O)ncc3Cl)C2)cc1 [Example 8.266] |
| 64 | CC(=O)N[C@@H](C)c1ccc(O[C@@H]2CCN(c3nc(N(C)C4CCC4)ncc3Cl)C2)cc1 [Example 8.267] |
| 198 | CC(=O)N[C@@H](C)c1ccc(O[C@@H]2CCN(c3ncnc(N(C)CC(C)C)c3F)C2)cc1 [Example 8.268] |
| 188 | CC(=O)N[C@@H](C)c1ccc(O[C@@H]2CCN(c3ncnc(N4CCC(C)(O)C4)c3F)C2)cc1 (some centres unmarked) [Example 8.269] |
| 455 | COCCCN(C)c1ncnc(N2CC[C@@H](Oc3ccc([C@H](C)NC(C)=O)cc3)C2)c1F [Example 8.270] |
| 170 | CC(=O)N[C@@H](C)c1ccc(O[C@@H]2CCN(c3nc(N4CCCC4(C)C)ncc3F)C2)cc1 [Example 8.271] |
| 1190 | CC(=O)N[C@@H](C)c1ccc(O[C@@H]2CCN(c3nc(N4CC5COCC5C4)ncc3F)C2)cc1 (some centres unmarked) [Example 8.272] |
| 1350 | CC(=O)N[C@@H](C)c1ccc(O[C@@H]2CCN(c3nc(N4CCC(C)(O)CC4)ncc3F)C2)cc1 [Example 8.273] |
| 130 | CC(=O)N[C@@H](C)c1ccc(O[C@@H]2CCN(c3nc(N4CCOC(C)C4)ncc3F)C2)cc1 (some centres unmarked) [Example 8.274] |
| 183 | COC1CCCN(c2ncc(F)c(N3CC[C@@H](Oc4ccc([C@H](C)NC(C)=O)cc4)C3)n2)C1 (some centres unmarked) [Example 8.275] |
| 174 | CC(=O)N[C@@H](C)c1ccc(O[C@@H]2CCN(c3nc(N4CCC5(CC5)C4)ncc3Cl)C2)cc1 [Example 8.276] |
| 867 | CC(=O)N[C@@H](C)c1ccc(O[C@@H]2CCN(c3ccnc(N4C[C@@H]5CC[C@@H](C4)O5)n3)C2)cc1 [Example 8.277] |
| 673 | CC(=O)N[C@@H](C)c1ccc(O[C@@H]2CCN(c3ncnc(N4C[C@@H]5CC[C@@H](C4)O5)c3F)C2)cc1 [Example 8.278] |
| 369 | CC(=O)N[C@@H](C)c1ccc(O[C@@H]2CCN(c3nc(N4C[C@@H]5CC[C@@H](C4)O5)ncc3F)C2)cc1 [Example 8.279] |

| IC50 [nM] | Structure (SMILES) |
| --- | --- |
| 1230 | CC(=O)N[C@@H](C)c1ccc(O[C@@H]2CCN(c3nc(N4C[C@@H]5CC[C@@H](C4)O5)ncc3Cl)C2)cc1 [Example 8.280] |
| 372 | CC(=O)N[C@@H](C)c1ccc(O[C@@H]2CCN(c3nc(N4CCC[C@@H]4C)ncc3Cl)C2)cc1 [Example 8.281] |
| 157 | CC(=O)N[C@@H](C)c1ccc(O[C@@H]2CCN(c3nc(N4CCC[C@@H]4C)ncc3F)C2)cc1 [Example 8.282] |
| 57 | CC(=O)N[C@@H](C)c1ccc(O[C@@H]2CCN(c3nc(N4CCC[C@H]4C)ncc3F)C2)cc1 [Example 8.283] |
| 240 | CC(=O)N[C@@H](C)c1ccc(O[C@@H]2CCN(c3ncnc(N4CCC[C@@H]4C)c3F)C2)cc1 [Example 8.284] |
| 89 | CC(=O)N[C@@H](C)c1ccc(O[C@@H]2CCN(c3nc(N4CCC[C@H]4C)ncc3Cl)C2)cc1 [Example 8.285] |
| 165 | CC(=O)N[C@@H](C)c1ccc(O[C@@H]2CCN(c3ncnc(N4CCC[C@H]4C)c3F)C2)cc1 [Example 8.286] |
| 455 | CC(=O)N[C@@H](C)c1ccc(O[C@@H]2CCN(c3ncnc(N4CC[C@@H](F)C4)c3F)C2)cc1 [Example 8.287] |
| 874 | CC(=O)N[C@@H](C)c1ccc(O[C@@H]2CCN(c3nc(N(CCO)C4CC4)ncc3F)C2)cc1 [Example 8.288] |
| 484 | CC(=O)N[C@@H](C)c1ccc(O[C@@H]2CCN(c3nc(N4CC(F)(F)C4)ncc3Cl)C2)cc1 [Example 8.289] |
| 765 | CC(=O)N[C@@H](C)c1ccc(O[C@@H]2CCN(c3nc(N(C)C4CCOCC4)ncc3F)C2)cc1 [Example 8.290] |
| 111 | CC(=O)N[C@@H](C)c1ccc(O[C@@H]2CCN(c3ncnc(N4CC[C@](C)(O)C4)c3F)C2)cc1 [Example 8.291] |
| 359 | CC(=O)N[C@@H](C)c1ccc(O[C@@H]2CCN(c3ncnc(NCC4(O)CCC4)c3F)C2)cc1 [Example 8.292] |
| 50 | CC(=O)N[C@@H](C)c1ccc(O[C@@H]2CCN(c3ncnc(N4CC[C@H](C)C4)c3F)C2)cc1 [Example 8.293] |
| 52 | CC(=O)N[C@@H](C)c1ccc(O[C@@H]2CCN(c3ncnc(N4CC[C@@H](C)C4)c3F)C2)cc1 [Example 8.294] |
| 790 | COc1c(N2CC[C@@H](Oc3ccc([C@H](C)NC(C)=O)cc3)C2)ncnc1N1CCC(C)(O)C1 (some centres unmarked) [Example 8.295] |
| 113 | CC(=O)N[C@@H](C)c1ccc(O[C@@H]2CCN(c3ncnc(NCC(C)(C)O)c3Cl)C2)cc1 [Example 8.296] |
| 224 | CC(=O)N[C@@H](C)c1ccc(O[C@@H]2CCN(c3ncnc(N4CCC(C)(O)C4)c3Cl)C2)cc1 (some centres unmarked) [Example 8.297] |
| 156 | CCCNc1ncnc(N2CC[C@@H](Oc3ccc([C@H](C)NC(C)=O)cc3)C2)c1Cl [Example 8.298] |
| 70 | CC(=O)N[C@@H](C)c1ccc(O[C@@H]2CCN(c3ncnc(NCC4(O)CCC4)c3Cl)C2)cc1 [Example 8.299] |
| 537 | COc1c(NCC2(O)CCC2)ncnc1N1CC[C@@H](Oc2ccc([C@H](C)NC(C)=O)cc2)C1 [Example 8.300] |
| 809 | CCCNc1ncnc(N2CC[C@@H](Oc3ccc([C@H](C)NC(C)=O)cc3)C2)c1OC [Example 8.301] |
| 202 | CCCNc1ncc(F)c(N2CC[C@@H](Oc3ccc([C@H](C)NC(C)=O)cc3)C2)n1 [Example 8.302] |
| 301 | CC(=O)N[C@@H](C)c1ccc(O[C@@H]2CCN(c3nc(NCC4CC4)ncc3F)C2)cc1 [Example 8.303] |
| 510 | CC(=O)N[C@@H](C)c1ccc(O[C@@H]2CCN(c3nc(NCC(F)F)ncc3F)C2)cc1 [Example 8.304] |
